{"source": "patent US6410601B1", "about": "“Histochrome and its therapeutic use in acute myocardial infarction and ischemic heart disease” (priority 1998, dated 2002)", "origin": "cited, not measured here", "test_system": "patients with acute myocardial infarction", "settings": "10 mg/kg intravenously before thrombolytic reperfusion", "data": [{"smiles": "CCc1nc(C)ccc1O", "note": "[Emoxipin]", "values": [{"measurement": "reduction of the size of the asynergic zone in the myocardium", "setting": "26 patients, control group 39.2%", "value": 59.5, "unit": "%"}, {"measurement": "frequency of myocardial arrhythmias", "setting": "control 28.1%", "value": 13.9, "unit": "%"}, {"measurement": "lipid peroxidation in terms of malonic dialdehyde concentration", "setting": "monotherapy 309%", "value": 60, "unit": "%"}]}]}
